One may read the MIC as the least concentration at which growth counts as inhibited. High values mean weaker potency, low ones greater potency.

In brackets after ≈: the same amount, converted by molar mass.

This is an account of results in patent US5698574A, “5-membered heteroaryl-oxazolidinones” (Bayer Aktiengesellschaft, priority 1994, dated 1997).

Holding throughout (experiment): minimum inhibitory concentration (MIC), series dilution on Iso-Sensitest agar
Holding throughout (type): cell-based

One assay concerns Psdm. Bonn. As to conditions: 37° C., about 20 hours, about 10^4 colony-forming particles per point. The method, then:
(§1) The minimum inhibitory concentrations (MIC) were determined by the series dilution method on Iso-Sensitest agar (Oxoid). A series of agar plates which contained concentration of the active compound which decreased by two-fold dilution in each case was prepared for each test substance. The agar plates were inoculated with a Multipoint inoculator (Denley). Overnight cultures of the pathogens which had been diluted beforehand such that each inoculation point contained about 10^4 colony-forming particles were used for the inoculation. The inoculated agar plates were incubated at 37° C. and the germ growth was read off alter about 20 hours. The MIC value (μg/ml) indicates the lowest concentration of active compound at which no growth was detectable with the naked eye.

A further assay concerns Staph 9TV. The following applies: 37° C., about 20 hours, about 10^4 colony-forming particles per point. The method, then: as §1
For a further assay, the system named is Staph 133. As to conditions: 37° C., about 20 hours, about 10^4 colony-forming particles per point. The method, then:
as §1

Another assay deals with Klebs. 57 USA. The following applies: 37° C., about 20 hours, about 10^4 colony-forming particles per point. The method, then: as §1
A further assay relates to Staph 25701. As to conditions: 37° C., about 20 hours, about 10^4 colony-forming particles per point. The method, then: as §1
For the next assay, the system named is Staph 48N. As to conditions: 37° C., about 20 hours, about 10^4 colony-forming particles per point. The method, then: as §1
The next assay has as its system E. coli Neumann. As to conditions: Escherichia coli, 37° C., about 20 hours, about 10^4 colony-forming particles per point. The method, then: as §1

Turning to `CC(=O)NC[C@H]1CN(c2cc3cc(Br)ccc3s2)C(=O)O1` [Example 22], the MIC against Psdm. Bonn is above 32 µg/mL; with Staph 9TV it was 2 µg/mL (≈ 5.42 µM); against Staph 133, 4 µg/mL (≈ 10.8 µM); in the assay on Klebs. 57 USA, above 32 µg/mL; against Staph 25701, 1 µg/mL (≈ 2.71 µM); in the assay on Staph 48N, 2 µg/mL (≈ 5.42 µM). Besides, the MIC in the assay on E. coli Neumann is above 32 µg/mL.
`CC(=O)NC[C@H]1CN(c2cc(Br)cs2)C(=O)O1` [Example 26]: the MIC was above 32 µg/mL in the assay on Psdm. Bonn; 8 µg/mL (≈ 25.1 µM) in the assay with Staph 9TV; 8 µg/mL (≈ 25.1 µM) with Staph 133; above 32 µg/mL with Klebs. 57 USA; 8 µg/mL (≈ 25.1 µM) in the assay on Staph 25701; 8 µg/mL (≈ 25.1 µM) in the assay with Staph 48N. This compound gave an MIC against E. coli Neumann above 32 µg/mL.
As for `CC(=O)NC[C@H]1CN(c2ccc(-c3ccc(C)cc3)s2)C(=O)O1` [Example 39, (5S)-3-{2[5-(4-Methylphenyl)]thiophenyl}-5-acetyl-aminomethyl-oxazolidin-2-one], the MIC was above 32 µg/mL against Psdm. Bonn; 1 µg/mL (≈ 3.03 µM) against Staph 9TV; 2 µg/mL (≈ 6.05 µM) against Staph 133; above 32 µg/mL against Klebs. 57 USA; 2 µg/mL (≈ 6.05 µM) against Staph 25701; 2 µg/mL (≈ 6.05 µM) against Staph 48N. This compound also had a minimum inhibitory concentration (MIC) with E. coli Neumann above 32 µg/mL.
Turning to `CC(=O)NC[C@H]1CN(c2ccc(-c3ccccc3C=O)s2)C(=O)O1` [Example 40, (5S)-3-{2[5-(2-Formylphenyl)]thiophenyl}-5-acetylamino-methyl-oxazolidin-2-one], the MIC against Psdm. Bonn is above 32 µg/mL; in the assay on Staph 9TV, 1 µg/mL (≈ 2.9 µM); against Staph 133, 2 µg/mL (≈ 5.81 µM); in the assay on Klebs. 57 USA, above 32 µg/mL; with Staph 25701 it was 2 µg/mL (≈ 5.81 µM); with Staph 48N it was 4 µg/mL (≈ 11.6 µM). The same compound displayed an MIC in the assay on E. coli Neumann above 32 µg/mL.
Consider `CC(=O)NC[C@H]1CN(c2ccc(-c3csc(C=O)c3)s2)C(=O)O1` [Example 41], for which the MIC in the assay on Psdm. Bonn was above 32 µg/mL; with Staph 9TV it was 2 µg/mL (≈ 5.71 µM); in the assay on Staph 133, 2 µg/mL (≈ 5.71 µM); in the assay on Klebs. 57 USA, above 32 µg/mL; with Staph 25701 it was 2 µg/mL (≈ 5.71 µM); with Staph 48N it was 2 µg/mL (≈ 5.71 µM). In the assay with E. coli Neumann, this compound showed an MIC above 32 µg/mL.
On to `CC(=O)NC[C@H]1CN(c2ccc(-c3ccccc3)s2)C(=O)O1` [Example 42], for which the MIC in the assay with Psdm. Bonn was above 32 µg/mL; in the assay with Staph 9TV, 2 µg/mL (≈ 6.32 µM); in the assay with Staph 133, 2 µg/mL (≈ 6.32 µM); against Klebs. 57 USA, above 32 µg/mL; in the assay with Staph 25701 it was 4 µg/mL (≈ 12.6 µM); against Staph 48N it was 4 µg/mL (≈ 12.6 µM). Further, the minimal inhibitory concentration (MIC) in the assay on E. coli Neumann was above 32 µg/mL.
As for `CC(=O)NC[C@H]1CN(c2ccc(-c3cccc(C=O)c3)s2)C(=O)O1` [Example 43], the minimum inhibitory concentration (MIC) against Psdm. Bonn is above 32 µg/mL; with Staph 9TV it was 1 µg/mL (≈ 2.9 µM); with Staph 133, 1 µg/mL (≈ 2.9 µM); in the assay with Klebs. 57 USA it was above 32 µg/mL; in the assay with Staph 25701 it was 1 µg/mL (≈ 2.9 µM); in the assay on Staph 48N, 1 µg/mL (≈ 2.9 µM). The compound also gave an MIC in the assay with E. coli Neumann above 32 µg/mL.
As for `CC(=O)NC[C@H]1CN(c2ccc(-c3ccc(C=O)cc3)s2)C(=O)O1` [Example 44], the minimal inhibitory concentration (MIC) against Psdm. Bonn was above 32 µg/mL; in the assay on Staph 9TV, 0.25 µg/mL (≈ 0.726 µM); in the assay with Staph 133, 0.25 µg/mL (≈ 0.726 µM); in the assay with Klebs. 57 USA, above 32 µg/mL; against Staph 25701, 0.25 µg/mL (≈ 0.726 µM); in the assay with Staph 48N it was 0.25 µg/mL (≈ 0.726 µM). In the assay with E. coli Neumann, this compound registered an MIC above 32 µg/mL.
Turning to `CC(=O)NC[C@H]1CN(c2ccc(-c3ccc(C(C)=O)cc3)s2)C(=O)O1` [Example 46], the minimal inhibitory concentration (MIC) was above 32 µg/mL in the assay on Psdm. Bonn; 0.5 µg/mL (≈ 1.4 µM) against Staph 9TV; 2 µg/mL (≈ 5.58 µM) in the assay with Staph 133; above 32 µg/mL in the assay on Klebs. 57 USA; 2 µg/mL (≈ 5.58 µM) with Staph 25701; 2 µg/mL (≈ 5.58 µM) in the assay on Staph 48N. The minimal inhibitory concentration (MIC) in the assay with E. coli Neumann is above 32 µg/mL.
With `CC(=O)NC[C@H]1CN(c2ccc(-c3ccc(F)cc3)s2)C(=O)O1` [Example 51], the MIC in the assay on Psdm. Bonn was above 32 µg/mL; against Staph 9TV it was 1 µg/mL (≈ 2.99 µM); against Staph 133 it was 4 µg/mL (≈ 12 µM); in the assay with Klebs. 57 USA it was above 32 µg/mL; in the assay with Staph 25701, 2 µg/mL (≈ 5.98 µM); against Staph 48N, 2 µg/mL (≈ 5.98 µM). The minimal inhibitory concentration (MIC) against E. coli Neumann is above 32 µg/mL.
With `CC(=O)NC[C@H]1CN(c2ccc(-c3cccc(N)c3)s2)C(=O)O1` [Example 56], the MIC with Psdm. Bonn is above 32 µg/mL; against Staph 9TV it was 4 µg/mL (≈ 12.1 µM); with Staph 133 it was 8 µg/mL (≈ 24.1 µM); against Klebs. 57 USA, above 32 µg/mL; in the assay with Staph 25701, 4 µg/mL (≈ 12.1 µM); against Staph 48N, 4 µg/mL (≈ 12.1 µM). In the assay with E. coli Neumann, this compound had an MIC above 32 µg/mL.
As to `CC(=O)NC[C@H]1CN(c2cc(-c3cccc(C=O)c3)cs2)C(=O)O1` [Example 59], the minimal inhibitory concentration (MIC) in the assay on Psdm. Bonn is above 32 µg/mL; with Staph 9TV it was 1 µg/mL (≈ 2.9 µM); against Staph 133, 4 µg/mL (≈ 11.6 µM); against Klebs. 57 USA, above 32 µg/mL; in the assay on Staph 25701 it was 2 µg/mL (≈ 5.81 µM); in the assay on Staph 48N it was 2 µg/mL (≈ 5.81 µM). In the assay with E. coli Neumann, this compound showed an MIC above 32 µg/mL.
As to `CC(=O)NC[C@H]1CN(c2cc(-c3ccc(C=O)cc3)cs2)C(=O)O1` [Example 60], the minimum inhibitory concentration (MIC) was above 32 µg/mL in the assay on Psdm. Bonn; 8 µg/mL (≈ 23.2 µM) in the assay with Staph 9TV; 16 µg/mL (≈ 46.5 µM) in the assay with Staph 133; above 32 µg/mL against Klebs. 57 USA; 8 µg/mL (≈ 23.2 µM) in the assay with Staph 25701; 8 µg/mL (≈ 23.2 µM) in the assay with Staph 48N. Moreover, the MIC with E. coli Neumann was above 32 µg/mL.
With `CC(=O)NC[C@H]1CN(c2ccc(-c3ccc(CO)cc3)s2)C(=O)O1` [Example 101, (5S)-3-(2-[5-(4-hydroxymethyl)phenyl]thiophenyl)-5-acetylamino-methyl-oxazolidin-2-one], the minimal inhibitory concentration (MIC) against Psdm. Bonn was above 32 µg/mL; with Staph 9TV it was 2 µg/mL (≈ 5.77 µM); against Staph 133, 2 µg/mL (≈ 5.77 µM); in the assay on Klebs. 57 USA, above 32 µg/mL; in the assay with Staph 25701, 2 µg/mL (≈ 5.77 µM); in the assay with Staph 48N, 2 µg/mL (≈ 5.77 µM). The minimum inhibitory concentration (MIC) with E. coli Neumann was above 32 µg/mL.
Regarding `CC(=O)NC[C@H]1CN(c2ccc(-c3cccc(CO)c3)s2)C(=O)O1` [Example 102], the minimal inhibitory concentration (MIC) is above 32 µg/mL in the assay on Psdm. Bonn; 8 µg/mL (≈ 23.1 µM) with Staph 9TV; 8 µg/mL (≈ 23.1 µM) in the assay on Staph 133; above 32 µg/mL with Klebs. 57 USA; 8 µg/mL (≈ 23.1 µM) against Staph 25701; 8 µg/mL (≈ 23.1 µM) against Staph 48N. This compound also registered an MIC in the assay with E. coli Neumann above 32 µg/mL.
